One assay relates to HB4a erbB-2 cells. As to the kind of experiment: cell proliferation assay, HB4a cells transformed by over-expression of c-erbB-2. The assay is classed as cell-based. To be noted: Homo sapiens, 96 h, low serum, 4 days at 37° C., methylene blue, 0.5% DMSO. As to the method: (§1) Compounds of the present invention were tested for protein tyrosine kinase inhibitory activity in a substrate phosphorylation assay and a cell proliferation assay. The cell proliferation assay uses an immortalised human breast epithelial cell line (HB4a) which has been transformed by over-expression of c-erbB-2. Growth of these cells in low serum is dependent upon the c-erbB-2 tyrosine kinase activity. The specificity of the effect of the test compounds on tyrosine kinase dependent growth over general toxicity is assessed by comparison to an HB4a cell line which has been transfected with ras. Cells are plated at 3000/well in 96-well plates in 0.1 ml medium and allowed to attach overnight. test compound is added in 0.1 ml medium, with a final concentration of 0.5% DMSO, and the plates incubated for 4 days at 37° C. The cells are then examined microscopically for evidence of morphological detransformation and cell mass is estimated by staining with methylene blue and measuring the absorbance at 620 nm. The results are shown in the second and third columns of Table 1 below as the IC50 values in nM.

The next assay deals with T1, c-erbB-2 (Homo sapiens, UniProt P04626).
T1 construct: recombinant construct of the intracellular domain of c-erbB-2 that is constitutively active; made in house
The experiment in a line: c-erbB-2 substrate phosphorylation assay (33P-labelled γ-phosphate from ATP onto PolyGluAlaTyr). The assay is classed as biochemical. To be noted: 1 hour, room temperature, 100 μM ATP, 10 mM MnCl2, pH 7.4, 2% DMSO; recombinant intracellular domain of c-erbB-2. As to the method: Compounds of the present invention were tested for protein tyrosine kinase inhibitory activity in a substrate phosphorylation assay and a cell proliferation assay. The substrate phosphorylation assay uses a baculovirus expressed, recombinant construct of the intracellular domain of c-erbB-2 that is constitutively active. […] The reaction is stopped by the addition of EDTA (final concentration 0.1M) and the peptide is then precipitated onto ion exchange filter paper and the incorporated radioactivity determined. The results are shown in the first column of Table 1 below as the IC50 values in nM.

The test system of the next assay is HB4a ras cells. As to the kind of experiment: cell proliferation assay, HB4a cells transfected with ras. The class given is cell-based. The note with it: Homo sapiens, 96 h, 4 days at 37° C., methylene blue, 0.5% DMSO, control for general toxicity. The procedure:
as §1

Assay [1] concerns EGF receptor tyrosine kinase. The note with it: Fry et al (Science, 265, 1093 (1994)); cited from earlier work.
Another assay concerns other tyrosine kinases. The note with it: Fry et al (Science, 265, 1093 (1994)); cited from earlier work.
The conditions of assay [2]: stated without data, in contrast to the compounds of the invention; cited from earlier work.

pIC50: −log10 of the molar value. Structures can show the parent of a compound that is named as a salt.

T1 sequence (P04626 676-1255 limits assumed): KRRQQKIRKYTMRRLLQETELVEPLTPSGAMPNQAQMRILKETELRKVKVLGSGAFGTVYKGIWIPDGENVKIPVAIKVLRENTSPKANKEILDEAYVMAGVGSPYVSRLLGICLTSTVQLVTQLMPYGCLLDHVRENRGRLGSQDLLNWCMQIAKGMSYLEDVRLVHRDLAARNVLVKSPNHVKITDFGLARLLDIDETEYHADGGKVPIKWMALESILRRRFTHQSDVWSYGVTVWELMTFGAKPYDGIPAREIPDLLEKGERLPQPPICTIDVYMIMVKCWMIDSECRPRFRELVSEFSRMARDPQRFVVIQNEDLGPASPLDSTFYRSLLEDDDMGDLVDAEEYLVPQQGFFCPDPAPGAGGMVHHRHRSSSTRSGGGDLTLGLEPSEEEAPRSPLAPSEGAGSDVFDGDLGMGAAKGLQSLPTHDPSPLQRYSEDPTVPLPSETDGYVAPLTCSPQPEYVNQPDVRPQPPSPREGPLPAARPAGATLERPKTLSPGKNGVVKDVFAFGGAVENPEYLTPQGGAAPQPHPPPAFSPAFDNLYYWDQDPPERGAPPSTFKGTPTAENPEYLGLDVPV

As to `Cc1csc2ncnc(Nc3ccc(OCC4CCCCC4)cc3)c12` [Example 36, 4-(4-Cyclohexylmethoxyanilino)-5-methylthieno[2,3-d]pyrimidine hydrochloride], the figures for the pIC50 in the assay on HB4a erbB-2 cells, at c-erbB-2 and in the assay on HB4a ras cells were 5.00, 6.30 and 5.00, respectively.
Take `c1ccc(Oc2ccc(Nc3ncnc4ccsc34)cc2)cc1` [Example 29, 4-(4-Phenoxyanilino)thieno[3,2-d]pyrimidine hydrochloride]: the pIC50 in the assay with HB4a erbB-2 cells was 5.30; at c-erbB-2, 6.96; with HB4a ras cells, 4.70.
With `O=S1(=O)CCN(c2cc3c(Nc4ccc(OCc5ccccc5)cc4)ncnc3cn2)CC1` [Example 11, 4-(4-Benzyloxyanilino)-6-(thiomorpholine-1,1-dioxide-4-yl)-pyrido[3,4-d]pyrimidine], the pIC50 in the assay on HB4a erbB-2 cells was 5.00; on c-erbB-2, 6.04; in the assay with HB4a ras cells, 4.43.
For `Cn1nccc1-c1cc2c(Nc3ccc(OCc4ccccc4)cc3)ncnc2cn1` [Example 4, 4-(4-Benzyloxyanilino)-6-(N-methylpyrazol-2-yl)pyrido[3,4-d]pyrimidine], the negative-log IC50 (pIC50) was 5.60 with HB4a erbB-2 cells, 6.91 on c-erbB-2 and 4.96 with HB4a ras cells.
For `CN(C)c1cc2c(Nc3ccc(OCC4OCCO4)cc3)ncnc2cn1` [Example 20, 6-(N,N-Dimethylamino)-4-[4-(1,3-dioxolan-2-yl)methoxyanilino]pyrido[3,4-d]pyrimidine] the same measures were 5.62, 8.00 and 4.34.
For `Cn1cncc1-c1cc2c(Nc3ccc(OCc4ccccc4)cc3)ncnc2cn1` [Example 2, 4-(4-Benzyloxyanilino)-6-(N-methylimidazol-5-yl)pyrido[3,4-d]pyrimidine] the same measures were 6.16, 7.59 and 5.43.
As to `Cc1csc2ncnc(Nc3ccc(Oc4ccccc4)cc3)c12` [Example 37, 5-Methyl4-(4-phenoxyanilino)thieno[2,3-d]pyrimidine hydrochloride], the negative-log IC50 (pIC50) in the assay with HB4a erbB-2 cells was 4.77; on c-erbB-2 it was 6.19; with HB4a ras cells, 4.60.
The matching figures for `CN(C)c1cc2c(Nc3ccc(S(=O)(=O)c4ccccc4)cc3)ncnc2cn1` [Example 15, 6-(N,N-Dimethylamino)-4-(4-phenylsulphonylanilino)pyrido[3,4-d]pyrimidine]: 6.24, 7.52 and 4.49.
On to `c1ccc(Cc2ccc(Nc3ncnc4ccsc34)cc2)cc1` [Example 28, 4-(4-Benzylanilino)thieno[3,2-d]pyrimidine hydrochloride], for which the negative logarithm of the IC50 (pIC50) was 5.52 in the assay with HB4a erbB-2 cells, 6.70 at c-erbB-2 and 4.89 in the assay on HB4a ras cells.
For the molecule `CN1CCN(c2cc3c(Nc4ccc(S(=O)(=O)c5ccccc5)cc4)ncnc3cn2)CC1` [Example 16, 6-(1-Methylpiperazin-4-yl)-4-(4-phenylsulphonylanilino)-pyrido[3,4-d]pyrimidine], the pIC50 in the assay with HB4a erbB-2 cells was 5.62; at c-erbB-2, 7.30; with HB4a ras cells it was 5.18.
Consider `FC(F)(Oc1ccc(Nc2ncnc3ccsc23)cc1)c1ccccc1` [Example 30, 4-(4-(a,a-Difluorobenzyloxy)anilino)thieno[3,2-d]pyrimidine hydrochloride], for which the results for the negative logarithm of the IC50 (pIC50) in the assay on HB4a erbB-2 cells, on c-erbB-2 and in the assay with HB4a ras cells were 5.22, 6.07 and 4.82, respectively.
The matching figures for `c1ccc(Oc2ccc(Nc3ncnc4scc(-c5cccs5)c34)cc2)cc1` [Example 38, 4-(4-Phenoxyanilino)-5-(2-thienyl)thieno[2,3-d]pyrimidine hydrochloride]: 4.70, 6.31 and 4.70.
Take `Clc1cc(Nc2ncnc3ccsc23)ccc1OCc1ccccc1Br` [Example 26, 4-[4-(2-Bromobenzyloxy)-3-chloroanilino]thieno[3,2-d]pyrimidine hydrochloride]: the pIC50 was 5.60 in the assay on HB4a erbB-2 cells, 6.64 at c-erbB-2 and 4.52 in the assay on HB4a ras cells.
`CN(CCO)c1cc2c(Nc3ccc(S(=O)(=O)c4ccccc4)cc3)ncnc2cn1` [Example 18, 6-[N-Methyl-N-(2-hydroxyethyl)amino]-4-(4-phenylsulphonylanilino)pyrido[3,4-d]pyrimidine]: the values for the pIC50 in the assay with HB4a erbB-2 cells, on c-erbB-2 and in the assay on HB4a ras cells were 6.82, 8.30 and 4.55, respectively.
For `Fc1ccccc1COc1ccc(Nc2ncnc3ccsc23)cc1Cl` [Example 25, 4-[3-Chloro-4-(2-fluorobenzyloxy)anilino]thieno[3,2-d]pyrimidine hydrochloride] the same measures were 6.30, 6.82 and 5.52.
The matching figures for `COc1ccccc1COc1ccc(Nc2ncnc3ccsc23)cc1Cl` [Example 24, 4-[3-Chloro-4-(2-methoxybenzyloxy)anilino]thieno[3,2-d]pyrimidine hydrochloride]: 5.00, 7.30 and 4.74.
In the case of `COc1cc2ncnc(Nc3cccc(Br)c3)c2cc1OC`, the “inhibition of the EGF receptor tyrosine kinase” value in assay [1] is listed as “picomolar concentrations”. The “inhibition of other tyrosine kinases” value with other tyrosine kinases was “micromolar or higher concentrations”. Further, in assay [2], the in vivo activity result is recorded as “does not however exhibit good in vivo activity”.
Take `Cc1csc2ncnc(Nc3ccc(OCc4ccccc4F)c(Cl)c3)c12` [Example 35, 4-[3-Chloro-4-(2-fluorobenzyloxy)anilino]-5-methylthieno[2,3-d]pyrimidine hydrochloride]: the negative-log IC50 (pIC50) was 5.10 with HB4a erbB-2 cells, 7.00 at c-erbB-2 and 4.60 with HB4a ras cells.
In the case of `Cn1ccnc1-c1cc2c(Nc3ccc(OCc4ccccc4)cc3)ncnc2cn1` [Example 3, 4-(4-Benzyloxyanilino)-6-(N-methylimidazol-2-yl)pyrido[3,4-d]pyrimidine], the results for the pIC50 in the assay with HB4a erbB-2 cells, at c-erbB-2 and in the assay on HB4a ras cells were 4.96, 6.94 and 4.36, respectively.
The matching figures for `CN(C)c1cc2c(Nc3ccc(Oc4ccccc4)cc3)ncnc2cn1` [Example 12, 6-N,N-Dimethylamino-4-(4-phenoxyanilino)pyrido[3,4-d]pyrimidine]: 5.80, 7.62 and 4.51.
The matching figures for `CN(C)CCN(C)c1cc2c(Nc3ccc(S(=O)(=O)c4ccccc4)cc3)ncnc2cn1` [Example 17, 6-[N-Methyl-N-(2-dimethylaminoethyl)amino]-4-(4-phenylsulphonylanilino)-pyrido[3,4-d]pyrimidine]: 5.36, 6.70 and 5.00.
For the molecule `c1ccc(COc2ccc(Nc3ncnc4cnc(-c5ccco5)cc34)cc2)cc1` [Example 5, 4-(4-Benzyloxyanilino)-6-(furan-2-yl)pyrido[3,4-d]pyrimidine], the negative logarithm of the IC50 (pIC50) was 6.30 in the assay on HB4a erbB-2 cells, 7.85 at c-erbB-2 and 4.96 in the assay on HB4a ras cells.
The matching figures for `c1ccc(COc2ccc(Nc3ncnc4ccsc34)cc2)cc1` [Example 23, 4-(4-Benzyloxyanilino)thieno[3,2-d]pyrimidine hydrochloride]: 5.70, 6.52 and 5.30.
Regarding `O=S(=O)(c1ccccc1)c1ccc(Nc2ncnc3cnc(Cl)cc23)cc1` [Example 14, 6-Chloro-4-(4-phenylsulphonylanilino)pyrido[3,4-d]pyrimidine hydochloride], the results for the negative-log IC50 (pIC50) with HB4a erbB-2 cells, on c-erbB-2 and in the assay on HB4a ras cells were 4.82, 6.05 and 4.30, respectively.
With `Clc1cc2c(Nc3ccc(OCc4ccccc4)cc3)ncnc2cn1` [Example 1, 4-(4-Benzyloxyanilino)-6-chloropyrido[3,4-]pyrimidine hydrochloride], the pIC50 in the assay on HB4a erbB-2 cells was 5.57; on c-erbB-2 it was 7.24; with HB4a ras cells, 4.77.
Take `CN1CCN(c2cc3c(Nc4ccc(OCc5ccccc5)cc4)ncnc3cn2)CC1` [Example 8, 4-(4-Benzyloxyanilino)-6-(1-methylpiperazin-4-yl)-pyrido[3,4-d]pyrimidine]: the figures for the pIC50 in the assay with HB4a erbB-2 cells, at c-erbB-2 and in the assay with HB4a ras cells were 6.23, 7.70 and 5.12, respectively.
Take `CN(C)c1cc2c(Nc3ccc(OCc4ccccc4)cc3)ncnc2cn1` [Example 7, 4-(4-Benzyloxyanilino)-6-(N,N-dimethylamino)pyrido[3,4-d]pyrimidine]: the negative-log IC50 (pIC50) with HB4a erbB-2 cells was 6.52; at c-erbB-2, 8.89; in the assay on HB4a ras cells, < 4.30.

By pIC50 is commonly meant −log10 of the IC50, conventionally taken in molar units.

Source of the values: patent publication US6169091A, “Bicyclic heteroaromatic compounds as protein tyrosine kinase inhibitors” (Glaxo Wellcome Inc., priority 1995, dated 2001).
